Results as given in US11845770B2, “Ascaroside derivatives and methods of use” (California Institute of Technology, priority 2019, dated 2023).
Entries after “also recorded” stand apart in the source; their conditions may differ.

Key:
[1] = system: A549 human alveolar epithelial cells; test: Stimulation of A549 human lung carcinoma cell line, cytokine expression; format: cell-based; conditions: A549, 10 ng/mL TNFα + 10 ng/mL IL-1β, 48 hours; for percent inhibition relative to Stimulated of IL-8 expression: FIG. 16
Description: A549 cells are cultured in DMEM supplemented with 2 mM glutamine and 10% Fetal Bovine Serum (FBS) at 37° C. with 5% (v/v) CO2. Cells are grown to approximately 80% confluency before being passage and media is changed every 2-3 days. A549 cells are seeded in 24-well plates at a density of 0.5×10^6 cells per well at 37° C. with 5% (v/v) CO2. The cells are pre-treated with the compounds (0, 1.0, 10, 100 μM) for 1 hour prior to addition of 10 ng/mL of TNFα and 10 ng/mL of IL-1β for 48 hours at 37° C. with 5% (v/v) CO2. Supernatants were collected and stored at −80° C. until quantitative detection assays are performed.
Human Eotaxin, Monocyte Chemoattractant Protein-1 (MCP-1), Interleukin-6 (IL-6), Interleukin-25 (IL-25), Interleukin-33 (IL-33), Thymic stromal lymphopoietin (TSLP), and Granulocyte-Macrophage Colony-Stimulating Factor (GM-CSF) released from supernatants collected post stimulation were measured using Human Magnetic Luminex® Assay Kit. Human CCL5/RANTES was measured using an Enzyme-Linked Immunosorbent Assay (ELISA)-based analysis.

[2] = Stability in hepatocytes (rat); format: in vitro ADME; conditions: cryopreserved rat hepatocytes (suspension)
Description: 10 mM of 1 was provided as a 1000× stock solution in dimethylsulfoxide (DMSO), and the stock solution was diluted to 1 mM with DMSO in 96-well plates. 30 mM of positive compounds (7-ethoxycoumarin and 7-hydroxycoumarin) were provided as a 1000× stock solution in DMSO, and the stock solution was diluted to 3 mM with DMSO in 96-well plates. 20 μL of 1000× stock solution of each compound were pipetted and was mixed with 380 μL of 45% MeOH/H2O to obtain 50 μM of 1 and 150 μM of the positive control compound solutions to form 50× intermediate solutions. 20 μL of 50× intermediate solution of each compound were pipetted and was mixed with […] of pre-warmed incubation medium to obtain 5 μM of 1 and 15 μM of the positive control compound solutions to form 5× working solutions. The incubation medium was Williams' Medium E (no phenol red) containing 2 mM L-glutamine and 25 mM HEPES. 10 μL of 5× working solutions of each compound were pipetted into appropriate wells in a 96-well plate for time points of 0 minutes, 15 minutes, 30 minutes, 60 minutes, and 90 minutes in duplicates. The plates with compounds were kept warm in an incubator at 37° C.
A cell suspension was prepared by thawing cryopreserved cells, isolating the cells, and suspending the cells in thawing medium. […]
The remaining percentage of 1 after incubation was calculated according to the following equation. […]

[3] = system: THP-1 derived macrophages; test: Stimulation of THP-1 cells, cytokine release 72 h post stimulation; format: cell-based, human; conditions: 72 h post stimulation (IFN-γ + LPS); 0.1, 1, 10, 100 or 200 μM vs 0 μM
Description: Human immortalized monocytic THP-1 cells were maintained in phenol red free RPMI 1640 medium containing 10% (v/v) fetal bovine serum (FBS), 2 mM L-glutamine, penicillin (100 units/mL), streptomycin (100 μg/mL), amphotericin B (2.5 μg/mL), and 50 μM beta-mercaptoethanol (BME) at 37° C. with 5% (v/v) CO2. THP-1 cells were seeded in 1 mL of THP-1 medium (cell culture medium containing 10% (v/v) FBS, 2 mM L-glutamine, penicillin (100 units/mL), streptomycin (100 μg/mL), amphotericin B (2.5 μg/mL), and 50 μM BME)/well at a density of 1 million cells/mL in six-well plates. Cells were differentiated by adding 100 nM phorbol 12-myristate 13-acetate (PMA) to each well before incubating cells for 5.5 h at 37° C. with 5% (v/v) CO2. Without removing the media, different concentrations (either 0, 0.1, 1, 10, 100, or 200 μM) of 1 and 10 were added to each well. Cells were stimulated, within 30 min by adding 20 ng/mL interferon gamma (IFN-γ) and 100 ng/mL lipopolysaccharide (LPS) to each well. Following stimulation, the THP-1 cells were incubated for 72 h at 37° C. with 5% (v/v) CO2. Supernatant was collected and stored at −80° C. until use.
IL-6 release from supernatant collected at 72 hours post stimulation was measured using the AlphaLISA Human IL-6 detection kit.
TNFα release from supernatant collected at 72 hours post stimulation was measured using the AlphaLISA Human TNFα detection kit.

Row | half-life at 1 µM [2] [min] | SMILES | percent inhibition relative to Stimulated of IL-8 expression ([1]; 1.0, 10, 100 μM) | percent inhibition relative to Stimulated of GM-CSF expression ([1]; 1.0, 10, 100 μM, FIG. 16, 17) | percent inhibition relative to Stimulated of IL-25 expression ([1]; 1.0, 10, 100 μM, FIG. 16, 17) | percent inhibition relative to Stimulated of IL-33 expression ([1]; 1.0, 10, 100 μM, FIG. 16, 17) | percent inhibition relative to Stimulated of MCP-1 expression ([1]; 1.0, 10, 100 μM, FIG. 16, 17) | percent inhibition relative to Stimulated of Eotaxin expression ([1]; FIG. 18) | percent inhibition relative to Stimulated of IL-6 expression ([1]; FIG. 18) | percent inhibition relative to Stimulated of RANTES expression ([1]; FIG. 18) | percent inhibition relative to Stimulated of TSLP expression ([1]; FIG. 18) | fold change of IL-6 levels secreted by the THP1-derived macrophages [3] | fold change of TNFα levels secreted by the THP1-derived macrophages [3]
1 | 23.1 | C[C@H](CC/C=C/C(=O)OC(C)(C)C)O[C@@H]1O[C@@H](C)[C@H](O)C[C@H]1O [Compound 1, tert-butyl (2E,6R)-6-{[(2R,3R,5R,6S)-3,5-dihydroxy-6-methyloxan-2-yl]oxy}hept-2-enoate] | dose-dependent inhibition | statistically significant, dose-dependent inhibition | dose-dependent inhibition | statistically significant, dose-dependent inhibition | statistically significant, dose-dependent inhibition | robust, statistically significant inhibition | robust, statistically significant inhibition | robust, statistically significant inhibition | robust, statistically significant inhibition | reduced these levels significantly; also recorded: even more significantly reduced | reduced these levels significantly
2 | > 217 | C[C@H](CC/C=C/C(=O)O)O[C@@H]1O[C@@H](C)[C@H](O)C[C@H]1O [ascr #7, reference compound] | did not influence | statistically significant but not dose-dependent inhibition | did not influence | – | statistically significant but not dose-dependent inhibition | – | – | – | – | significantly reduced | –
